What was measured:
Ysp2p [1] = target: T1, Ysp2p (Saccharomyces cerevisiae, UniProt Q06681); test: tryptophan-DHE FRET with purified domain; format: binding
T1 construct: gene YSP2; StART-like domains Ysp2S1 (829-1027) and Ysp2S2 (1027-1244), His-tagged, each measured

Lam4p [2] = target: T2, Lam4p (Saccharomyces cerevisiae, UniProt P38800); test: biochemical
T2 construct: gene LAM4

Lam4p [3] = target: T2, Lam4p; test: co-purification of […]-labelled cholesterol from HL60 cells (TLC); competition of DHE FRET; format: binding
Ysp2p [4] = target: T1, Ysp2p; test: competition of tryptophan-DHE FRET with purified domain; format: binding

T1 sequence (Q06681 829-1244): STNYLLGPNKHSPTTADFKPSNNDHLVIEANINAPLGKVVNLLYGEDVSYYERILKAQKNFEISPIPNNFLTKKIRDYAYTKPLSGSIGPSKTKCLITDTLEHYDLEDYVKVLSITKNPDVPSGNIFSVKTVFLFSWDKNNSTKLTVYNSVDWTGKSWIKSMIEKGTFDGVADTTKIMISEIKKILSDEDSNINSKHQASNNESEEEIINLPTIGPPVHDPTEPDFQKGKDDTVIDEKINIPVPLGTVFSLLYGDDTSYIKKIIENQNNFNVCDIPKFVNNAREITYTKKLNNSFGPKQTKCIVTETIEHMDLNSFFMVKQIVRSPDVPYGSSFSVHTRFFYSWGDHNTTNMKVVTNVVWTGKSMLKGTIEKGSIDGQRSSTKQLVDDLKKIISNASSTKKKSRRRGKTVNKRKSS
T2 sequence (P38800 946-1155): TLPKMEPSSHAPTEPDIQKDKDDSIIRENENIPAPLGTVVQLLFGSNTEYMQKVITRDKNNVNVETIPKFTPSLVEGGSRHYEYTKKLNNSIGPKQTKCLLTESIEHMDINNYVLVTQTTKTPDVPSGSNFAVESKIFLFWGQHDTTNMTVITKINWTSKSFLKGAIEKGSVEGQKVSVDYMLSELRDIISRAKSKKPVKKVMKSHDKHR

| Compound | tryptophan-DHE FRET with purified domain (Ysp2p [1]) | Kd (Lam4p [2]) [nM] | co-purification of 14C-labelled cholesterol from HL60 cells (TLC); competition o (Lam4p [3]) | competition of tryptophan-DHE FRET with purified domain (Ysp2p [4]) |
| --- | --- | --- | --- | --- |
| CC(C)[C@@H](C)/C=C/[C@@H](C)[C@H]1CC[C@H]2C3=CC=C4C[C@@H](O)CC[C@]4(C)C3=CC[C@]12C [DHE, dehydroergosterol] | these proteins all produced strong FRET signals with DHE | 500 |  |  |
| CC(C)CCC[C@@H](C)[C@H]1CC[C@H]2[C@@H]3CC=C4C[C@@H](O)CC[C@]4(C)[C@H]3CC[C@]12C [chol, cholesterol] |  |  | Lam4S2 extracted cholesterol but no other lipids from labelled HL60 cells | All four purified StART-like domains bound both cholesterol (the predominant sterol in mammals) and ergosterol |
| CC(C)[C@@H](C)/C=C/[C@@H](C)[C@H]1CC[C@H]2C3=CC=C4C[C@@H](O)CC[C@]4(C)[C@H]3CC[C@]12C [erg, ergosterol] |  |  |  | All four purified StART-like domains bound both cholesterol (the predominant sterol in mammals) and ergosterol |
